Active and inactive are the calls of the source. No cut-off for these calls is given here.

As usually defined, the IC50 is the concentration that inhibits the measured activity by half.

Assay [1] addresses DNA topoisomerase 2-alpha (Homo sapiens) (UniProt P11388). The assay is described as follows: Inhibition of recombinant human topoisomerase 2 alpha-mediated relaxation of supercoiled pBR322 DNA at 200 uM incubated for 30 mins by ethidium bromide staining based agarose gel electrophoresis method.
The next assay deals with HeLa. The assay is described as follows: Antiproliferative activity against human HeLa cells assessed as reduction in cell viability incubated for 72 hrs by SRB assay. It is filed as functional, cell-based.
The next assay relates to HCT-116. The assay is described as follows: Antiproliferative activity against human HCT-116 cells assessed as reduction in cell viability incubated for 72 hrs by SRB assay. It is filed as functional, cell-based. The settings on record: HCT-116, 72 h. For orientation: Sulforhodamine B stains cellular protein and so reports cell mass.
The subject of the next assay is SW480. Nature of the assay: Antiproliferative activity against human SW480 cells assessed as reduction in cell viability incubated for 72 hrs by SRB assay. The settings on record: SW480, 72 h. It is filed as functional, cell-based.
The subject of a further assay is K562. The assay is described as follows: Antiproliferative activity against human K562 cells assessed as reduction in cell viability incubated for 48 hrs by MTT assay. The format is functional, cell-based. The settings on record: K562, 48 h.

Sequence of DNA topoisomerase 2-alpha (Homo sapiens) (P11388 whole entry): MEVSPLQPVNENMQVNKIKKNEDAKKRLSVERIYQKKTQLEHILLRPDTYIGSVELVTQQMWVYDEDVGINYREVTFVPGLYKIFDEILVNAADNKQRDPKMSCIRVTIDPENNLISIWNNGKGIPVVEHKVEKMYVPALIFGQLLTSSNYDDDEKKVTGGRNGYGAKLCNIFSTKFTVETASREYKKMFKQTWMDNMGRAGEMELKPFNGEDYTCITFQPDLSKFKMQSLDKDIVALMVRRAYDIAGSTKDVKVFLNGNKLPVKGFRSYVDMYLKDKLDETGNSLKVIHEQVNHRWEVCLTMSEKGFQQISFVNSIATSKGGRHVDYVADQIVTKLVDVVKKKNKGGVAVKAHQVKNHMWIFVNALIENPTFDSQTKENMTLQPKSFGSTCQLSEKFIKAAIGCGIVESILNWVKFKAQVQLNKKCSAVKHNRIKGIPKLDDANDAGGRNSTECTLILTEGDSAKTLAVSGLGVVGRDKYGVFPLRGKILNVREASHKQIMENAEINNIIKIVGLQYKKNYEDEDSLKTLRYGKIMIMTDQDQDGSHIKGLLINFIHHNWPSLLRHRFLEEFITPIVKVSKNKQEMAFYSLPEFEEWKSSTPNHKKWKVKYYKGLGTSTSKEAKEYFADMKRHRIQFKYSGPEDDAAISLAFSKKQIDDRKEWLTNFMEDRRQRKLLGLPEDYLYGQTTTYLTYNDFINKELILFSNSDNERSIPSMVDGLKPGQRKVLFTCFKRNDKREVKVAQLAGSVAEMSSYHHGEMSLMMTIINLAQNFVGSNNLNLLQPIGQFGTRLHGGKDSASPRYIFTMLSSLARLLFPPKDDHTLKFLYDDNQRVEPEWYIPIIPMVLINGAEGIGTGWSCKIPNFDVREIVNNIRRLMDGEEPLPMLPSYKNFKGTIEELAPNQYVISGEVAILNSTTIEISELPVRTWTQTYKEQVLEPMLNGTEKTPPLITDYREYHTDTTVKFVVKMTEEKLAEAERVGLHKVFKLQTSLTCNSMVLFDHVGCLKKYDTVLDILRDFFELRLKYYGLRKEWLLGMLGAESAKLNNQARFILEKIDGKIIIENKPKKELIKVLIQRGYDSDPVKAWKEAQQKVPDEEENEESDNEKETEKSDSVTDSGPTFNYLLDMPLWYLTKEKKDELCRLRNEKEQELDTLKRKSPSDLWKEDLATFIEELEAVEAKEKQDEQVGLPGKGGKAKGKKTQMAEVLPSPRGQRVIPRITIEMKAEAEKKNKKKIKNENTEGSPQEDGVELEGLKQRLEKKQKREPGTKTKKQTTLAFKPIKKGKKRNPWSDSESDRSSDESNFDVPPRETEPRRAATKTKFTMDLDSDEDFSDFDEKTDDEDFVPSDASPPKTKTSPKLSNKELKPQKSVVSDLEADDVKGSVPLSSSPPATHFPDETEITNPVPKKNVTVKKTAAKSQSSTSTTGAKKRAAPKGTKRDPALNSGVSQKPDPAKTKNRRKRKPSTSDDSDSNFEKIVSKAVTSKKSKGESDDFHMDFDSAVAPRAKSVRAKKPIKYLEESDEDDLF

Turning to `O=c1c2cc(O)ccc2[nH]c2c([N+](=O)[O-])ccc(Nc3ccc(CN4CCCCC4)cc3)c12`, the inhibition entry in assay [1] is “Active”. Besides, the half-maximal inhibitory concentration (IC50) in the assay on HeLa amounted to 1.1 µM; with HCT-116, 2.5 µM; with SW480 it was 2.3 µM.

Regarding `O=c1c2cc(O)ccc2[nH]c2c([N+](=O)[O-])ccc(Nc3ccc(Cn4cncn4)cc3)c12`, in assay [1], the inhibition result is “Active”. Further, the IC50 with HeLa is 7.6 µM; with HCT-116, 3.9 µM; with SW480 it was 2.3 µM.

With `CN1CCN(Cc2ccc(Nc3ccc([N+](=O)[O-])c4[nH]c5ccc(O)cc5c(=O)c34)cc2)CC1`, in assay [1], the inhibition result is “Active”. Also, the values for the IC50 in the assay with HeLa, with HCT-116 and in the assay with SW480 were 0.6 µM, 0.4 µM and 0.3 µM, respectively.

As for `COc1ccc2[nH]c3c(N)ccc(NCCc4ccc(OC)c(OC)c4)c3c(=O)c2c1`, the IC50 with HeLa came to 8.8 µM; in the assay on HCT-116, 8.8 µM; in the assay on SW480 it was 15.6 µM.

Regarding `COc1ccc2[nH]c3c([N+](=O)[O-])ccc(NCCc4cccc(C(F)(F)F)c4)c3c(=O)c2c1`, the IC50 with HeLa was 12.4 µM; in the assay with HCT-116, above 20 µM; with SW480, 12.4 µM.

Take `COc1cc(Nc2ccc([N+](=O)[O-])c3[nH]c4ccc(O)cc4c(=O)c23)cc(OC)c1`: in assay [1], the inhibition result is “Active”. Further, the concentration for half-maximal inhibition (IC50) in the assay on HeLa, in the assay with HCT-116 and in the assay with SW480 was above 20 µM in each case.

For the compound `CCCCCCCCCCCOc1ccc(OCc2ccc(C(=O)N[C@@H](CCC(=O)O)C(=O)O)cc2)c2c1C(=O)c1ccccc1C2=O`, in the assay on K562, the IC50 came out at 0.77 µM.

Regarding `COc1ccc2[nH]c3c([N+](=O)[O-])ccc(NCCc4ccc(O)c(O)c4)c3c(=O)c2c1`, the concentration for half-maximal inhibition (IC50) in the assay on HeLa is above 20 µM; in the assay on HCT-116 it was above 20 µM; in the assay with SW480, 6.5 µM.

Consider `O=c1c2cc(O)ccc2[nH]c2c([N+](=O)[O-])ccc(NCCc3cccc(C(F)(F)F)c3)c12`, for which the IC50 is 7.6 µM in the assay on HeLa, above 20 µM with HCT-116 and 11.7 µM in the assay on SW480.

`COc1ccc(CCNc2ccc(N)c3[nH]c4ccc(O)cc4c(=O)c23)cc1OC`: the values for the IC50 with HeLa, in the assay on HCT-116 and with SW480 were 17.2 µM, above 50 µM and above 50 µM, respectively.

Turning to `Nc1ccc(NCCc2cccc(C(F)(F)F)c2)c2c(=O)c3cc(O)ccc3[nH]c12`, the IC50 in the assay with HeLa is above 20 µM; in the assay on HCT-116 it was above 50 µM; with SW480, above 20 µM.

Consider `COc1ccc2[nH]c3c([N+](=O)[O-])ccc(NCc4ccco4)c3c(=O)c2c1`, for which the IC50 with HeLa, with HCT-116 and in the assay with SW480 was above 20 µM in each case.

Regarding `COc1ccc2[nH]c3c([N+](=O)[O-])ccc(NCCc4ccc(OC)c(OC)c4)c3c(=O)c2c1`, the IC50 with HeLa was 12.8 µM; in the assay on HCT-116 it was above 20 µM; with SW480, 19.7 µM.

With `CN1CCN(CCNc2ccc([N+](=O)[O-])c3[nH]c4ccc(O)cc4c(=O)c23)CC1`, the inhibition entry in assay [1] was “Active”. Further, the IC50 with HeLa was 1.2 µM; in the assay on HCT-116, 0.7 µM; in the assay with SW480 it was 1.2 µM.

For `COc1ccc2[nH]c3c(N)ccc(Nc4ccc(OC)c(OC)c4)c3c(=O)c2c1`, the IC50 is 6.2 µM with HeLa, 4.6 µM in the assay with HCT-116 and 8.6 µM in the assay with SW480.

`COc1ccc(Nc2ccc([N+](=O)[O-])c3[nH]c4ccc(O)cc4c(=O)c23)cc1OC`: the inhibition entry in assay [1] was “inactive”. In addition, the IC50 in the assay with HeLa, in the assay on HCT-116 and in the assay on SW480 was above 20 µM throughout.

Turning to `COc1ccc(CCNc2ccc([N+](=O)[O-])c3[nH]c4ccc(F)cc4c(=O)c23)cc1OC`, the IC50 is 4.5 µM in the assay on HeLa, above 20 µM with HCT-116 and 8.8 µM in the assay on SW480.

`COc1ccc(CCNc2ccc([N+](=O)[O-])c3[nH]c4ccc(O)cc4c(=O)c23)cc1OC`: the half-maximal inhibitory concentration (IC50) in the assay on HeLa, with HCT-116 and with SW480 was above 20 µM throughout.

As for `O=c1c2cc(O)ccc2[nH]c2c([N+](=O)[O-])ccc(NCc3cccs3)c12`, the inhibition entry in assay [1] is “inactive”. The half-maximal inhibitory concentration (IC50) in the assay with HeLa, with HCT-116 and with SW480 was above 20 µM in each case.

With `COc1ccc2[nH]c3c([N+](=O)[O-])ccc(Nc4ccc(CN5CCCCC5)cc4)c3c(=O)c2c1`, in assay [1], the inhibition entry was “Active”. In addition, the IC50 with HeLa was found to be 1.7 µM; with HCT-116 it was 5.7 µM; in the assay on SW480 it was 8.8 µM.

`COc1ccc2[nH]c3c(N)ccc(Nc4ccc(-n5cncn5)cc4)c3c(=O)c2c1`: the inhibition entry in assay [1] is “Active”. The IC50 is 16.8 µM in the assay on HeLa, above 20 µM in the assay on HCT-116 and 15.7 µM in the assay with SW480.

In the case of `COc1ccc(Nc2ccc([N+](=O)[O-])c3[nH]c4ccc(O)cc4c(=O)c23)cc1`, the inhibition result in assay [1] was “Active”. Moreover, the 50% inhibitory concentration (IC50) in the assay with HeLa, in the assay on HCT-116 and in the assay on SW480 was above 20 µM each time.

For `COc1ccc2[nH]c3c([N+](=O)[O-])ccc(NCc4cccnc4)c3c(=O)c2c1`, the IC50 in the assay with HeLa, in the assay on HCT-116 and with SW480 was above 20 µM in each case.

As for `COc1ccc2[nH]c3c([N+](=O)[O-])ccc(Nc4ccc(N5CCOCC5)cc4)c3c(=O)c2c1`, the IC50 in the assay with HeLa, with HCT-116 and in the assay on SW480 was above 20 µM throughout.

In the case of `O=c1c2cc(F)ccc2[nH]c2c([N+](=O)[O-])ccc(NCc3ccc(O)cc3)c12`, the IC50 in the assay on HeLa is 10.5 µM; in the assay on HCT-116 it was above 20 µM; with SW480 it was above 20 µM.

As for `COc1ccc(CCNc2ccc(N)c3[nH]c4ccc(F)cc4c(=O)c23)cc1OC`, the concentration for half-maximal inhibition (IC50) is 12.3 µM in the assay on HeLa, 17.5 µM with HCT-116 and 11.3 µM with SW480.

Regarding `CCN(CC)CCNc1ccc2ncn3c4ccc(O)cc4c(=O)c1c23` [C-1311], the 50% inhibitory concentration (IC50) with HCT-116 was found to be 0.3 µM; in the assay on SW480 it was 0.48 µM.

As to `O=c1c2cc(O)ccc2[nH]c2c([N+](=O)[O-])ccc(Nc3ccc(O)cc3)c12`, the inhibition entry in assay [1] was “Active”. In addition, the IC50 in the assay on HeLa, in the assay with HCT-116 and in the assay on SW480 was above 20 µM each time.

Take `COc1ccc2[nH]c3c([N+](=O)[O-])ccc(NCc4cccs4)c3c(=O)c2c1`: the IC50 in the assay on HeLa, with HCT-116 and with SW480 was above 20 µM throughout.

For the compound `CN1CCN(c2ccc(Nc3ccc([N+](=O)[O-])c4[nH]c5ccc(O)cc5c(=O)c34)cc2)CC1`, the inhibition entry in assay [1] is “Active”. Further, the results for the IC50 in the assay with HeLa, in the assay with HCT-116 and with SW480 were 4.8 µM, 1.5 µM and 1.1 µM, respectively.

For the compound `COc1cccc(Nc2ccc([N+](=O)[O-])c3[nH]c4ccc(O)cc4c(=O)c23)c1`, the inhibition result in assay [1] is “Active”. Further, the IC50 in the assay with HeLa, in the assay on HCT-116 and in the assay with SW480 was above 20 µM each time.

`COc1ccc2[nH]c3c(N)ccc(Nc4ccc(N5CCOCC5)cc4)c3c(=O)c2c1`: the values for the IC50 with HeLa, in the assay with HCT-116 and in the assay on SW480 were 17.5 µM, 17.8 µM and 3.8 µM, respectively.

As for `O=c1c2cc(O)ccc2[nH]c2c([N+](=O)[O-])ccc(NCc3ccc(F)cc3)c12`, the half-inhibitory concentration (IC50) in the assay with HeLa, in the assay with HCT-116 and in the assay with SW480 was above 20 µM in each case.

Turning to `O=c1c2cc(O)ccc2[nH]c2c([N+](=O)[O-])ccc(NCc3cccnc3)c12`, in assay [1], the inhibition entry is “inactive”. In addition, the IC50 with HeLa, in the assay with HCT-116 and with SW480 was above 20 µM in each case.

Regarding `COc1ccc2[nH]c3c([N+](=O)[O-])ccc(NCCCN4CCN(C)CC4)c3c(=O)c2c1`, the inhibition entry in assay [1] was “Active”. Further, the IC50 with HeLa came out at 0.9 µM; with HCT-116, 1 µM; in the assay with SW480, 2 µM.

As for `COc1ccc2[nH]c3c([N+](=O)[O-])ccc(Nc4ccc(O)cc4)c3c(=O)c2c1`, the inhibition result in assay [1] is “Active”. In addition, the half-maximal inhibitory concentration (IC50) with HeLa turned out to be 7.5 µM; with HCT-116, 11.8 µM; in the assay on SW480, 17.1 µM.

`O=c1c2cc(O)ccc2[nH]c2c([N+](=O)[O-])ccc(NCc3ccc(O)cc3)c12`: the IC50 in the assay on HeLa, with HCT-116 and with SW480 was above 20 µM each time.

In the case of `COc1ccc2[nH]c3c(N)ccc(NCCc4ccc(O)c(O)c4)c3c(=O)c2c1`, the IC50 with HeLa, with HCT-116 and in the assay on SW480 was above 50 µM throughout.

Regarding `O=c1c2cc(O)ccc2[nH]c2c([N+](=O)[O-])ccc(NCc3ccsc3)c12`, in assay [1], the inhibition entry was “Active”. Besides, the half-inhibitory concentration (IC50) in the assay on HeLa, in the assay with HCT-116 and with SW480 was above 20 µM throughout.

As to `COc1ccc2[nH]c3c([N+](=O)[O-])ccc(NCc4ccc(O)cc4)c3c(=O)c2c1`, the half-inhibitory concentration (IC50) in the assay with HeLa was above 20 µM; in the assay on HCT-116, 12.4 µM; with SW480 it was above 20 µM.

As for `O=c1c2cc(O)ccc2[nH]c2c([N+](=O)[O-])ccc(NCc3ccco3)c12`, the inhibition result in assay [1] is “Active”. The values for the concentration for half-maximal inhibition (IC50) with HeLa, in the assay on HCT-116 and with SW480 were 12.2 µM, above 20 µM and 15.5 µM, respectively.

Consider `COc1ccc2[nH]c3c([N+](=O)[O-])ccc(Nc4ccc(N5CCN(C)CC5)cc4)c3c(=O)c2c1`, for which the half-maximal inhibitory concentration (IC50) in the assay with HeLa, with HCT-116 and in the assay with SW480 was above 20 µM in each case.

As for `COc1ccc2[nH]c3c(N)ccc(NCCc4cccc(C(F)(F)F)c4)c3c(=O)c2c1`, the IC50 in the assay on HeLa, in the assay on HCT-116 and with SW480 was above 20 µM throughout.

Turning to `O=c1c2cc(O)ccc2[nH]c2c([N+](=O)[O-])ccc(Nc3ccc(N4CCOCC4)cc3)c12`, the results for the IC50 in the assay with HeLa, with HCT-116 and in the assay with SW480 were 6.4 µM, 5.9 µM and 2.4 µM, respectively.

Turning to `COc1ccc(Nc2ccc(N)c3[nH]c4ccc(OC)cc4c(=O)c23)cc1`, the 50% inhibitory concentration (IC50) with HeLa was above 12.5 µM; with HCT-116 it was above 12.5 µM; with SW480, above 25 µM.
